Assay results published in PMC12406253, “Exploration of the Neuromodulatory Properties of Fyn and GSK-3β Kinases Exploiting 7‑Azaindole-Based Inhibitors” (Journal of Medicinal Chemistry, 2025).

Tests used:
[1] = BBB permeability in hCMEC/D3 transwell model; details: human
Experimental: (§1) To this aim, the immortalized human brain endothelial cell line (hCMEC/D3) was used since it mimics the brain endothelium-restricted permeability and expresses most of the transporters and receptors present in vivo, constituting a valuable in vitro model of the human BBB crossing system.
(§2) BBB permeability assay was conducted as described in Albertini et al. The brain microvascular endothelial cells (hCMEC/D3) were seeded at the density of 5 × 10^4 cells per cm^2 in the upper compartment of Transwell filters (polyester, pore size 0.4 μm, 12-well tissue culture transwell; Corning), precoated with rat tail collagen type I (0.1 mg/mL; Roche). They were grown for 7 days up to confluence in Endothelial Cell Growth Medium 2 (Promocell), supplemented with penicillin/streptomycin 100 U/mL, in a humidified, 5% CO2 incubator at 37 °C. Confluent monolayers were washed in prewarmed HBSS buffer, and the selected compounds were added to the apical (AP) side at a concentration of 100 μM. […] Samples (100 μL) were collected from the BL side at different time points (15, 30, 60, and 90 min) and then replaced with the corresponding volume of HBSS buffer. […] The concentration of compounds was determined using a Ultimate 3000 HPLC system (ThermoFisher) with UV–vis detection at the maximum absorption wavelength of each compound except for inulin as determined by a spectrophotometric method using a Tecan Sunrise absorbance microplate reader. […] The permeability coefficient (Papp) was calculated as follows: Papp = (ΔQ/Δt)/(C [donor] × A), where ΔQ/Δt represents the permeation rate (mol/s), C [donor] is the initial compound concentration in the donor compartment at time 0 (mol/cm^3), and A represents the surface area of the filter (1.12 cm^2).

[2] = test system: primary rat cerebellar granule neurons (CGNs); assay: Neuroprotection in CGNs, serum/potassium deprivation (MTT); assay type: cell-based; details: 5, 10, and 25 μM, 48 h
Source text: First, we evaluated the neuroprotective properties of the selected compounds in the same cell line, once the expression of Fyn and GSK-3β in this cellular model was verified (Figure S2), after a serum/potassium deprivation experiment, which simulates physiological aging (and mortality), triggering around 20% of cell death. In particular, 7 days differentiated CGNs were exposed to serum-free BME medium with low extracellular concentration of K^+ ions and treated at selected doses (i.e., 5, 10, and 25 μM) of compounds for 48 h. Neuronal viability was then determined with an MTT assay.
To evaluate the neuroprotective effect of our compounds, we tested increasing concentrations (5 μM, 10 μM, 25 μM) of compounds of interest in differentiated CGNs switched to serum-free BME medium with 5 mM KCl (serum-potassium deprivation) for 48 h to mimic in vitro the naturally occurring death of granule cells. Neuroprotection was evaluated through MTT assay.
For MTT assay, thiazolyl blue was added to the culture medium at a final concentration of 0.1 mg/mL. Following a 20 min incubation at 37 °C in the dark, the MTT precipitate was dissolved in 0.1 M Tris–HCl pH 7.5 buffer containing 5% Triton X-100 (all from Sigma-Aldrich) and absorbance was read at 570 nm in a microplate spectrophotometric reader (Bio-Rad).

[3] = test system: immortalized murine microglia N9; assay: Immunomodulation in LPS-treated N9 microglia, Western blot of iNOS and TREM2; details: 2.5 and 5 μM; 100 ng/mL LPS, 24 h
Experimental: To gain a conclusive answer on the potential role of these kinase inhibitors in counteracting neuroinflammatory processes, after the verified induced astrocytic polarization, the ability of selected compounds to modulate inflammatory response was analyzed by favoring the immunomodulatory switch from neurotoxic M1 phenotype of microglia to phagocytic and neuroprotective M2 phenotype, evaluating inducible nitric oxide synthase (iNOS) and TREM2 as M1 and M2 markers (Figure ).
The microglial phenotype was evaluated through Western blot analysis of the pro-inflammatory iNOS and anti-inflammatory-TREM2 markers.

[4] = test system: neurospheres (NPCs from the subventricular zone); assay: Neurosphere growth analysis (NPC proliferation); assay type: cell-based, mice; details: 0.1, 1, and 5 μM; 7 days
Experimental: Based on that, we further investigated the neurogenic and differentiation potential of our kinase inhibitors in cell culture of neurospheres, which are floating pools of NPCs coming from the subventricular zone (SVZ) of six-month-old mice. Particularly, we first analyzed the variation, during 7 days, in number and size of neurosphere population with and without treatment.
To investigate the effect of compounds of interest in neurospheres’ growth rate, single spheres were plated in suspension in 96-well plates (5 × 10^3 cells/well) in the presence of compounds (0.1 μM, 1 μM, and 5 μM) in complete DMEM F-12 culture medium. One image/well was acquired every day by using the Sartorius Incucyte Live-Cell Analysis System and evaluated through the Brightfield Spheroid Analysis Software Module. Only aggregates with areas larger than 400 μm^2 were considered for statistical analysis.

[5] = test system: primary rat cerebellar granule neurons (CGNs); assay: Neurotoxicity, cell viability in CGNs (MTT); assay type: cell-based; details: 5, 10, and 25 μM, 24 h
Experimental: A preliminary cell viability assessment was conducted in primary rat cerebellar granule neurons (CGNs), which are considered a reliable model for studying cellular and molecular mechanisms of survival/apoptosis and neurodegeneration/neuroprotection.
Primary cerebellar granule cells were dissociated from cerebella and plated on 96-well plates, previously coated with 10 μg/mL poly-L-lysine, at a density of 1.2 × 10^5 cells/0.2 mL medium/well in BME supplemented with 10% heat-inactivated FBS (Life Technologies), 2 mmol/L glutamine, 100 μmol/L gentamicin sulfate, and 25 mM KCl (all from Sigma-Aldrich). Sixteen hours later, 10 μM cytosine arabinofuranoside (Sigma-Aldrich) was added to avoid glial proliferation. After 7 days in vitro, differentiated neurons were shifted to serum-free BME medium and exposed to increasing concentrations (5 μM, 10 μM, 25 μM) of compounds of interest for 24 h. Then, cell viability was evaluated through the MTT assay.

FYNα = FYNα (Homo sapiens, UniProt P06241); assay: FYNα kinase assay, LANCE Ultra TR-FRET; assay type: biochemical; details: mean ± SD of at least three independent determinations; ATP near Km; read-out: Fyn IC50
Experimental: GSK-3β and FYNα kinase assays were run in 384-well microplates (OptiPlate-384, White, PerkinElmer) in a total reaction volume of 20 μL. The inhibitory potency against human recombinant GSK-3β and FYNα (Carna Biosciences) was evaluated using the LANCE Ultra (PerkinElmer) time-resolved fluorescence resonance energy transfer (TR-FRET) by measuring the phosphorylation of the ULight-labeled substrate, according to the manufacturer’s instructions. The synthetic peptide surrounding Ser641 of human muscle glycogen synthase (ULight-GS (Ser641/pSer657)) and the synthetic 28-amino acid peptide containing eight Tyr residues placed in different amino acid contexts (ULightTM-TK (PT66)) were selected as specific substrates for GSK-3β and FYNα, respectively. Briefly, test compounds and staurosporine (reference compound) or DMSO (control) are mixed with the enzyme (GSK-3β: 2 nM and FYNα: 1 nM) in a buffer containing 50 mM HEPES (pH 7.5), 1 mM EGTA, 10 mM MgCl2, 2 mM DTT, and 0.01% Tween-20. […] Following incubation, the reaction is stopped by adding 6 mM EDTA. After 5 min, the antiphospho antibody labeled with europium chelate is added. After 1 more hour, the kinase reaction is monitored by irradiation at 320 nm and the fluorescence measured at 615 and 665 nm, using EnVision 2014 Multilabel Reader (PerkinElmer). The calculated signal ratio at 665/615 nm is proportional to the extent of ULight-substrate phosphorylation. The compounds were tested at 11 different concentrations ranging from 3 nM up to 100 μM in triplicate. […] The results were expressed as a percent inhibition of the control enzyme activity.
Dose–response curves were run in at least three independent experiments, performed in three technical replicates. IC50 values (concentrations causing half-maximal enzyme inhibition) were determined by nonlinear regression analysis of the Log[concentration]/response curves generated with mean replicate values using a four parameter Hill equation curve fitting with GraphPad Prism 8 (GraphPad Software Inc., CA-USA).

[6] = test system: neurospheres (NPCs from the subventricular zone); assay: Neurosphere differentiation, immunofluorescence of DCX, GFAP, OLIG2; assay type: cell-based, mice; details: 1 μM; 7 days
Source text: Lastly, we move forward to evaluate the neuromodulatory profile of selected compounds that involves the capability to polarize the spontaneous differentiation of neurospheres, which potentially can maturate in neurons or macroglia, such as astrocytes and oligodendrocytes. Modulating NPC differentiation is especially relevant under neurodegenerative conditions as it could offer an intriguing opportunity to achieve polyhedric therapeutic effects. Importantly, neuronal differentiation may help to counteract the progressive neuronal loss, while promoting oligodendrocyte phenotype could support remyelination and neuronal function and the astrocytic polarization may aid to foster a neuroprotective profile. Particularly, after 7 days of treatment at 1 μM, in the same experimental conditions previously reported, cells were fixed and stained with different antibody markers such as doublecortin (DCX) for the immature neurons, glial fibrillary acidic protein (GFAP) for astrocytes, and oligodendrocyte transcription factor 2 (OLIG2) for oligodendrocyte precursors for immunofluorescence analysis (Figure a). […] By driving the maturation of astrocytes, compounds 41 and 43 could exert neuroprotection through multiple mechanisms, including the secretion of neurotrophic factors, enhancement of antioxidant defenses, regulation of water balance, ion homeostasis, and glutamate buffering and recycling. Furthermore, astrocytes support the integrity of the blood–brain barrier (BBB) and aid in the refinement of neural networks via synaptic pruning, further reinforcing their role in preserving brain function and structure.
NSCs were initially obtained by SVZ microdissection of 6 months-old C57BL/6N wild-type male mice (Mus musculus) and routinely cultured in suspension in DMEM-F12 (Gibco; ThermoFisher Scientific, Waltham, MA, USA) supplemented with 2 mM glutamine, 10 μg/mL insulin from bovine pancreas (Sigma-Aldrich; St Louis, MO, USA), 20 ng/mL epidermal growth factor (EGF; PeproTech EC, London, UK), 20 ng/mL fibroblast growth factor-2 (FGF2; PeproTech), 1% N2 (ThermoFisher Scientific), 1% B27 (ThermoFisher Scientific), 10 units/mL penicillin, and 10 μg streptomycin.
To assess the effect of compounds of interest in NSCs differentiation, 30 spheres were plated on 13 mm glass coverslips, previously coated with Matrigel matrix (Corning; New York, USA), in complete DMEM F-12 medium, and treated with 1 μM of compounds of interest. After 7DIV, neurospheres were fixed for 20 min with 4% PFA in PBS 0.1% pH 7.4. Fixed neurospheres were permeabilized in 0.1% Triton/PBS and nonspecific sites were blocked for 1 h with 0.1% Triton/PBS and 5% normal goat serum (Sigma-Aldrich; St Louis, MO, USA). Cells were then incubated overnight at 4 °C with the following primary antibodies: Anti-Doublecortin DCX (Abcam, Cambridge, UK), GFAP (Dakopatts), OLIG2 (Santa Cruz Biotechnology), 1:500 dilution in 0.1% Triton/PBS with 2% normal goat serum. After 3 washes in 0.1% Triton/PBS, specific secondary antibodies were added for 2 h at RT in the dark: Donkey anti-Mouse IgG Alexafluor 555 (Abcam, Cambridge, UK), Goat anti-Rabbit IgG Alexafluor 555 (Abcam, Cambridge, UK), 1:1000 dilution in 0.1% Triton/PBS with 2% normal goat serum. Following 3 washes in 0.1% Triton/PBS, nuclei were stained with DAPI (2 μg/mL, Sigma-Aldrich) for 5 min. Glass coverslips were mounted by using Ultracruz Aqueous Mounting Medium with DAPI (Santa Cruz Biotechnology). Neurospheres confocal images were obtained with a Nikon EZ-C1 microscope (60× objective) and the z-stack function (1024 steps and 1 μm thickness layers; 40 total stacks). 3D image reconstruction was performed by using Fiji ImageJ2 software, z-project plugin, and selecting the sum stacks’ function. Fluorescence intensity index was estimated as the ratio of markers’ positive cells intensity/total cells fluorescence intensity stained with DAPI per ROI.

[7] = test system: immortalized human brain endothelial cell line (hCMEC/D3); assay: BBB permeability in hCMEC/D3 transwell model; details: 100 μM apical; ± SE
Experimental: as §1, §2

FYNα, sequence (P06241 whole entry): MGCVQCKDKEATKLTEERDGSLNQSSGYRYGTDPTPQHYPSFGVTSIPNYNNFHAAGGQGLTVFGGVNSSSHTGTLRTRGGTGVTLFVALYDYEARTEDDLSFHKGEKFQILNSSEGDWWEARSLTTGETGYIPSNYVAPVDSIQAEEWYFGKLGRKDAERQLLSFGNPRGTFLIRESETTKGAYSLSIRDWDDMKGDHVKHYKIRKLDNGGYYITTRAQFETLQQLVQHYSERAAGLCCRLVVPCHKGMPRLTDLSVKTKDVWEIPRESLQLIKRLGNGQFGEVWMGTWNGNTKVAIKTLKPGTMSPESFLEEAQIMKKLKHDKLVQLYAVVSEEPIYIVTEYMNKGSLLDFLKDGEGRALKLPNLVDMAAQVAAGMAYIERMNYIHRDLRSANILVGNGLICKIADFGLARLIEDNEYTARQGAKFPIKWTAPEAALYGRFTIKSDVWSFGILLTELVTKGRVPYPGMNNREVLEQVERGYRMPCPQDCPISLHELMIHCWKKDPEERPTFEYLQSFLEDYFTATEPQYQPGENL

Compound: Cc1cc(=O)n(-c2ccccc2)n1C [Antypirine, antipyrine, reference compound]
- Papp A→B at 90 min, 100 μM [1]: 28 ± 0.53 ×10⁻⁶ cm/s

Compound: Br.Clc1cc(CNc2nc(-c3c[nH]c4ncccc34)cs2)ccn1 [Compound 28, N-((2-Chloropyridin-4-yl)methyl)-4-(1H-pyrrolo[2,3-b]pyridin-3-yl)thiazol-2-amine Hydrobromide]
- Neuroprotection on CGNs (cell viability after serum/potassium deprivation) [2]: mitigate the physiological senescence and mortality rate
- TREM2 expression (M2 marker) vs LPS [3]: no significant variations
- iNOS expression (M1 marker) vs LPS [3]: notably decreased the M1 marker at both tested concentrations
- Neurosphere dimension (brightfield object total area), maturation [4]: noticeable maturation at days 6 and 7
- Neurosphere number (object count per image), neurogenesis [4]: pronounced neurogenesis
- Increase in registered cell viability in comparison to control [5]: amplified
- Neurotoxicity on CGNs (cell viability compared to control) [5]: not neurotoxic
- Papp A→B at 90 min, 100 μM [1]: 12.4 ± 1.13 ×10⁻⁶ cm/s
- IC50 (FYNα): 710 ± 90 nM
- Differentiation toward oligodendrocytes (OLIG2) [6]: this effect was mitigated

Compound: c1ccc(CNc2nnc(-c3c[nH]c4ncccc34)s2)cc1 [Compound 40, N-Benzyl-5-(1H-pyrrolo[2,3-b]pyridin-3-yl)-1,3,4-thiadiazol-2-amine]
- Neuroprotection on CGNs (cell viability after serum/potassium deprivation) [2]: almost equipotent to inactive compounds
- TREM2 expression (M2 marker) vs LPS [3]: no significant variations
- Neurosphere number (object count per image), neurogenesis [4]: pronounced neurogenesis
- Neurotoxicity on CGNs (cell viability compared to control) [5]: not neurotoxic
- Differentiation toward astrocytes (GFAP) [6]: negatively affected astrocytic differentiation
- Differentiation toward neurons (DCX) [6]: mild increment
- Differentiation toward oligodendrocytes (OLIG2) [6]: inactive regarding oligodendrocytes

Compound: inulin [reference compound]
- Permeability coefficient Papp [7]: 6.74± 1.7 10-6 cm/s
